Each block holds one compound with its values, some of them ahead of it. Active and inactive are the calls of the source. The rule behind the calls is not given here.
Legend:
[1] = target: Matrix metalloproteinase-9 (Homo sapiens) (UniProt P14780); test: Inhibition of MMP9 gelatinolytic activity in human HT1080 cells at upto 60 ug/ml by gelatin zymography relative to control; format: cell-based; conditions: HT-1080
[2] = target: 72 kDa type IV collagenase (Homo sapiens) (UniProt P08253); test: Inhibition of MMP2 gelatinolytic activity in human HT1080 cells at upto 60 ug/ml by gelatin zymography relative to control; format: cell-based; conditions: HT-1080
[3] = target: 72 kDa type IV collagenase (Homo sapiens) (UniProt P08253); test: Inhibition of MMP2 gelatinolytic activity in phorbol myristate acetate-stimulated human HT1080 cells at 60 ug/ml by gelatin zymography relative to control; format: cell-based; conditions: HT-1080
[4] = target: Matrix metalloproteinase-9 (Homo sapiens) (UniProt P14780); test: Inhibition of MMP9 gelatinolytic activity in phorbol myristate acetate-stimulated human HT1080 cells at 60 ug/ml by gelatin zymography relative to control; format: cell-based; conditions: HT-1080
HT-1080 [5] = test: Antiinvasive activity in human HT1080 cells at 60 ug/ml after 48 hrs; format: functional, cell-based
[6] = target: Matrix metalloproteinase-9 (Homo sapiens) (UniProt P14780); test: Inhibition of MMP9 in phorbol myristate acetate-stimulated human HT1080 cells by gelatin zymography relative to control; format: cell-based; conditions: HT-1080
[7] = target: Transcription factor Jun (Homo sapiens) (UniProt P05412); test: Inhibition of AP1 gene promoter activity in phorbol myristate acetate-stimulated human HT1080 cells at 60 ug/ml by luciferase reporter gene assay; format: cell-based; conditions: HT-1080
[8] = target: 72 kDa type IV collagenase (Homo sapiens) (UniProt P08253); test: Inhibition of MMP2 in phorbol myristate acetate-stimulated human HT1080 cells by gelatin zymography relative to control; format: cell-based; conditions: HT-1080
HT-1080 [9] = test: Suppression of MMP9 expression in phorbol myristate acetate-stimulated human HT1080 cells by Western blotting relative to control; format: functional, cell-based
[10] = target: Matrix metalloproteinase-9 (Homo sapiens) (UniProt P14780); test: Inhibition of MMP9 gene promoter activity in phorbol myristate acetate-stimulated human HT1080 cells by luciferase reporter gene assay; format: cell-based; conditions: HT-1080
[11] = target: Matrix metalloproteinase-9 (Homo sapiens) (UniProt P14780); test: Reduction of gelatinolytic activity of MMP9 in phorbol myristate acetate-stimulated human HT1080 cells at 40 and 60 ug/ml; format: cell-based; conditions: HT-1080
[12] = target: 72 kDa type IV collagenase (Homo sapiens) (UniProt P08253); test: Inhibition of MMP2 gene promoter activity in phorbol myristate acetate-stimulated human HT1080 cells at 60 ug/ml by luciferase reporter gene assay relative to control; format: cell-based; conditions: HT-1080
[13] = target: 72 kDa type IV collagenase (Homo sapiens) (UniProt P08253); test: Reduction of gelatinolytic activity of MMP2 in phorbol myristate acetate-stimulated human HT1080 cells at 40 and 60 ug/ml; format: cell-based; conditions: HT-1080
HT-1080 [14] = test: Suppression of MMP2 expression in phorbol myristate acetate-stimulated human HT1080 cells by Western blotting relative to control; format: functional, cell-based
HT-1080 [15] = test: Suppression of TIMP2 expression in phorbol myristate acetate-stimulated human HT1080 cells by Western blotting relative to control; format: functional, cell-based
HT-1080 [16] = test: Antiinvasive activity in human HT1080 cells at 20 ug/ml after 48 hrs; format: functional
HT-1080 [17] = test: Inhibition of p38 expression in phorbol myristate acetate-stimulated human HT1080 cells at 60 ug/ml by Western blotting relative to control; format: functional, cell-based
[18] = target: 72 kDa type IV collagenase (Homo sapiens) (UniProt P08253); test: Inhibition of MMP2 gene promoter activity in phorbol myristate acetate-stimulated human HT1080 cells by luciferase reporter gene assay; format: cell-based; conditions: HT-1080
HT-1080 [19] = test: Inhibition of cell migration in human HT1080 cells at 60 ug/ml; format: functional
HT-1080 [20] = test: Suppression of NF-kappaB p65 subunit expression in phorbol myristate acetate-stimulated human HT1080 cell cytoplasm by Western blotting relative to control; format: functional, cell-based
HT-1080 [21] = test: Suppression of NF-kappaB p65 subunit expression in phorbol myristate acetate-stimulated human HT1080 cell nucleus by Western blotting relative to control; format: functional, cell-based
[22] = target: Matrix metalloproteinase-9 (Homo sapiens) (UniProt P14780); test: Inhibition of MMP9 gene promoter activity in phorbol myristate acetate-stimulated human HT1080 cells at 60 ug/ml by luciferase reporter gene assay relative to control; format: cell-based; conditions: HT-1080
HT-1080 [23] = test: Inhibition of ERK expression in phorbol myristate acetate-stimulated human HT1080 cells at 60 ug/ml by Western blotting relative to control; format: functional; set-up: scale not given: the % may be the effect or the level left
HT-1080 [24] = test: Inhibition of NF-kappaB gene promoter activity in phorbol myristate acetate-stimulated human HT1080 cells at 60 ug/ml by luciferase reporter gene assay; format: cell-based
HT-1080 [25] = test: Cytotoxicity against human HT1080 cells assessed as cell viability at upto 60 ug/ml; format: cell-based
HT-1080 [26] = test: Inhibition of JNK expression in phorbol myristate acetate-stimulated human HT1080 cells at 60 ug/ml by Western blotting relative to control; format: functional, cell-based
HT-1080 [27] = test: Suppression of AP1 c-FOS subunit expression in phorbol myristate acetate-stimulated human HT1080 cell cytoplasm by Western blotting relative to control; format: functional, cell-based
HT-1080 [28] = test: Suppression of AP1 c-FOS subunit expression in phorbol myristate acetate-stimulated human HT1080 cell nucleus by Western blotting relative to control; format: functional, cell-based
HT-1080 [29] = test: Suppression of TIMP1 expression in phorbol myristate acetate-stimulated human HT1080 cells by Western blotting relative to control; format: functional, cell-based

Chain of 72 kDa type IV collagenase (Homo sapiens) (P08253 110-660 limits assumed): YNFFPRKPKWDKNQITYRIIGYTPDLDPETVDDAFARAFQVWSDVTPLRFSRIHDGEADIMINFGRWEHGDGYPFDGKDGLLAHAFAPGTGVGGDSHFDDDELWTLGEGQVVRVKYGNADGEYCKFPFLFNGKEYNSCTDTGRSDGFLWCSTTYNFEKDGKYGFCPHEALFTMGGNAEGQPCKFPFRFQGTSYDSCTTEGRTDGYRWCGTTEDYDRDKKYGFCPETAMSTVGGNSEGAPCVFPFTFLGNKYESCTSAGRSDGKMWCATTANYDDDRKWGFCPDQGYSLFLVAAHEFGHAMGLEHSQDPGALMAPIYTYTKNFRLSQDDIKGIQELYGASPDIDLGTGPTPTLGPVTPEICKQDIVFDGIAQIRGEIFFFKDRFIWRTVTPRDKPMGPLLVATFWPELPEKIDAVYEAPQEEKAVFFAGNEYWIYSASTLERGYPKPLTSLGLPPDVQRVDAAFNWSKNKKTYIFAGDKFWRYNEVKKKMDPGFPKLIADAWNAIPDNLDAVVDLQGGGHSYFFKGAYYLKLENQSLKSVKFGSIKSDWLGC
Chain of Matrix metalloproteinase-9 (Homo sapiens) (P14780 whole entry): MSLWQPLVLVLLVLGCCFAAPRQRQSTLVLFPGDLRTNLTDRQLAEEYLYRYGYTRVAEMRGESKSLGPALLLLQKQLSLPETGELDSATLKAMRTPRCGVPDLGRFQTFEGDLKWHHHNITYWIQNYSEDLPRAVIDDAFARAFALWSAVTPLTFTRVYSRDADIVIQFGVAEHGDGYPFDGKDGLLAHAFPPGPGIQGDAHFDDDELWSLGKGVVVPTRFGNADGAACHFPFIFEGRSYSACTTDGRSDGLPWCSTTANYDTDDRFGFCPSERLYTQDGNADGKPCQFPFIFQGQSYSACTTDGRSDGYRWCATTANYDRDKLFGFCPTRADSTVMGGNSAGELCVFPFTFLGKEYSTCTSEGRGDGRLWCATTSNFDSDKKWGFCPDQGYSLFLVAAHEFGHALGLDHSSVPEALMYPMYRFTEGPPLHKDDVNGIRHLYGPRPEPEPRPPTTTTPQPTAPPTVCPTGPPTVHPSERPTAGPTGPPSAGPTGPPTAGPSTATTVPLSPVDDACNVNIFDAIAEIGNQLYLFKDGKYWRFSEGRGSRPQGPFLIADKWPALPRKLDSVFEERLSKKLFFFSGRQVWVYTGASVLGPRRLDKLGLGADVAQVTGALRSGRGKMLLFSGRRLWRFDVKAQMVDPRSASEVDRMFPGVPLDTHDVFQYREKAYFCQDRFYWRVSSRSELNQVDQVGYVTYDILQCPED
Chain of Transcription factor Jun (Homo sapiens) (P05412 whole entry): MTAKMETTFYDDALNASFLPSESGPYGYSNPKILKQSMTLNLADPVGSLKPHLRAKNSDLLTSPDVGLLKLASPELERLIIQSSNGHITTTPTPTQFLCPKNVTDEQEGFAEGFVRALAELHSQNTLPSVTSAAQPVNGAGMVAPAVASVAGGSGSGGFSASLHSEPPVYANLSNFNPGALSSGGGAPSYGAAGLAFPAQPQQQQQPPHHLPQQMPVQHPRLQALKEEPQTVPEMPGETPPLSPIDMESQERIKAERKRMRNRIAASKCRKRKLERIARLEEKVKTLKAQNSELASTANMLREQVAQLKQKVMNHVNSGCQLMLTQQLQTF

inhibition [1]: inactive | inhibition [2]: inactive
SMILES: C[C@H]1c2cccc(O)c2C(=O)C2=C(O)[C@]3(O)C(=O)C(C(N)=O)=C(O)[C@@H](N(C)C)[C@@H]3[C@@H](O)[C@@H]21

inhibition [3]: inactive | inhibition [4]: inactive
SMILES: N[C@H]1C(O)O[C@H](CO)[C@@H](O)[C@@H]1O (stereo partly drawn)
Activity (HT-1080 [5]): inactive

inhibition [3]: 62% | inhibition [6]: Active | inhibition [7]: 60% | inhibition [8]: Active | inhibition [10]: Dose-dependent effect | Activity [11]: Active | inhibition [4]: 50% | fold change (FC) [12]: 3 | Activity [13]: Active | inhibition [1]: inactive | inhibition [18]: Dose-dependent effect | inhibition [2]: inactive | fold change (FC) [22]: 3
SMILES: C[N+](C)(C)CC(O)CN[C@@H]1[C@@H](O)[C@H](O)[C@@H](CO)O[C@H]1O (stereo partly drawn)
Activity (HT-1080 [9]): Dose-dependent effect | Activity (HT-1080 [14]): Dose-dependent effect | Activity (HT-1080 [15]): inactive | Activity (HT-1080 [16]): 50% | inhibition (HT-1080 [17]): Active | inhibition at 60 µg/mL (HT-1080 [19]): 70% | Activity (HT-1080 [20]): Active | Activity (HT-1080 [21]): Active | Activity (HT-1080 [23]): 60% | inhibition (HT-1080 [24]): 65% | Activity (HT-1080 [25]): Non-toxic | inhibition (HT-1080 [26]): Active | Activity (HT-1080 [27]): Active | Activity (HT-1080 [28]): Active | Activity (HT-1080 [29]): inactive

Source: ChEMBL document CHEMBL1152915, “The inhibitory mechanism of a novel cationic glucosamine derivative against MMP-2 and MMP-9 expressions” (Bioorg Med Chem Lett, 2009)
